US20060270019A1, “Method for producing lactic acid bacterium culture containing bacteriocin and a method for preserving food products for by using it” (Ajinomoto Co., Inc., priority 2003, published 2006)
Positions of bridges follow the written chain, without caps; N, C: chain ends. Non-standard residues stand in square brackets, D forms with d. No end group written: not given here.

Tests used:
Type in all cases: cell-based
[1] = test system: Bacillus subtilis IAM1381; experiment: Bacteriocin as substitute for salt in soy sauce manufacturing process: viable cell count of contaminating bacterium; conditions: soy sauce koji test, first day of fermentation up to day 7
Description: Soybean (10 g) and pure water (10 ml) were individually added into six Erlenmeyer flasks (200-ml volume) and sterilized in an autoclave at 120° C. for 30 minutes. After cooling, 0.04 g of koji mold(Purple 1, NO.1 bacterium for soy sauce) was added, and cultivated statically at 30° C. for 2 days. 40 ml of sterile pure water were added to cultivated sample (Sample No.1), 40 ml of salt solution which adjusted the salt content of the sample to 18% to Sample No.2, 40 ml of a culture supernatant of Lactococcus lactis NCIMB702054 (the bacterium producing nisin Z) to Sample No.3 and 40 ml of a culture supernatant of Weissella sp. AJ110263 (FERM BP-10474) to Sample No.4, 40 ml of a culture supernatant of Pediococcus pentosaseceus JCM5885 to Sample 5 and 40 ml of a culture supernatant of Lactobacillus salivarius JCM1231 to Sample 6. The resulting mixtures were then adjusted to pH 6.5 to 7.0, using 6N hydrochloric acid and 6N NaOH passed through a filter.
200 μl of Bacillus subtilis IAM1381 cultivated in the TSBYE medium by a shaker at 30° C. for 20 hours was additionally inoculated, mixed thoroughly and cultivated at 30° C. On days 1, 2 and 7 of the cultivation, the broth was collected to count the viable cells of Bacillus subtilis IAM1381 on the GAM agar medium (GAM bouillon “NISSUI”, Nissui Pharmaceutical Co., Ltd.). […]

[2] = test system: Listeria innocua ATCC33090; experiment: Aging of ground beef inoculated with Listeria: viable cell count; conditions: first day of aging up to day 7
Text: The broths obtained by cultivating Lactococcus lactis NCIMB702054 (a strain producing NisinZ) and Weissella sp.AJ110263 (FERM BP-10474) in MRS culture media were adjusted to pH 5.5 with sodium hydroxide. Subsequently, the bacteria were removed from the pH adjusted culture liquid by centrifucation to obtain a supernatant. The broths containing lactic acid bacteria and the supernatants were used in the experiment described below.
5 g of ground meat of Black hair Japanese beef were individually put into six aseptic Falcon tubes (Becton Dickinson Co.50-ml volume) and 5 ml of saline were added to the meat(Sample No.1), 5 ml of 18% salt solution to Sample No.2, 5 ml of the supernatant of Lactococcus lactis NCIMB702054 to Sample No.3, 5 ml of the broth of Lactococcus lactis NCIMB702054 to Sample No.4, 5 ml of the supernatant of Weissella sp. AJ110263 to Sample No.5, 5 ml of the broth of Weissella sp. AJ110263 to Sample No.6. Further, Listeria innocua ATCC33090, statically cultivated in TSBYE medium at 37° C. for 24 hours, was added to the samples in the amount of 10^8 cfu/ml and the samples were aged at ambient temperature. The samples aged for one day and seven days were collected to count the viable cells of Listeria innocua ATCC33090 in the Listeria selection medium (Oxoid Inc.).

[3] = test system: Lactobacillus sakei strain JCM1157; experiment: Inhibitory zone of lactic acid bacteria on MRS agar plate containing protease (Umamizyme G), overlaid with indicator strain; conditions: Protease 0 U/ml, Nisin A spotted as 10 μl of 1000 IU/ml
Description: The collected lactic acid bacteria are cultivated in the heretofore described manner. Then, the lactic acid bacteria are inoculated and cultivated for 24 hours on a plate of MRS agar medium to which filtrated Umamizyme G (a protease derived from Aspergillus oryzaeproteases; Amano Enzyme Co) is added. Subsequently, the Lactobacilli AOAC medium (Table 3) into which an indicator strain is initially mixed is overlaid on the plate and cultivated for 24 hours, to form an inhibitory zone of the indicator strain.
Weissella sp. AJ110263 (FERM BP-10474) separated from fermented milk Matsoon and Pediococcus pentosaceus JCM5885, Pediococcus pentosaceus JCM5890, Lactobacillus plantarum JCM1149 and Lactobacillus salivarius obtained from the type cultures were initially cultivated followed by cultivation in the MRS medium (Table 1). […]
Lactococcus lactis NCDO497 (a nisinA producer) and Lactococcus lactis NCIMB702054 (a nisin Z producer) were cultivated in the MRS medium at 30° C. In the same manner as in Example 1, the antimicrobial activity was evaluated, using Lactobacillus sakei strain JCM1157 as an indicator strain.
Additionally, the antimicrobial activity was evaluated, by spotting 10 μl of a 1000 IU/ml solution of Nisin A, ICN Biomedical Inc. instead of using the nisin producer, on the plate of the MRS agar medium.

Row | Compound | contamination by Bacillus subtilis IAM1381 (in words) [1] | contaminating Listeria innocua ATCC33090 count [2] | Diameter(mm) of Inhibitory Zone of Strain not producing PRB [3]
1 | [Cl-].[Na+] [salt, sodium chloride] | no contamination occurred | ≥ 10^5 cfu/ml | –
2 | Nisin A (I[dehydrobutyrine]SI[dehydroalanine]LCTPGCKTGALMGCNMKTATCHCSIHV[dehydroalanine]K; bridge 23-26, 13-19, 8-11, 25-28, 3-7; not fully specified (residues 3, 8, 13, 23, 25, bridges); UniProt P13068 24-57, looked up) [Nisin A, ICN Biomedical Inc., bacteriocin spotted instead of a nisin producer] | – | – | 30 mm
